Data on two compounds can be found in paper PMC7737769, “Pharmacological inhibition of syntenin PDZ2 domain impairs breast cancer cell activities and exosome loading with syndecan and EpCAM cargo” (Journal of Extracellular Vesicles, 2020).

Each structure is given as a SMILES string. Values joined by “and” are separate entries in the source; they are usually repeats but may differ in a detail not shown here. Identical values can stand only once. Like-named read-outs stand apart in the source and are kept apart here.

One assay has as its system T1, GRASP55‐JAM‐B complex.
T1 construct: Human GRASP55 tandem PDZ; made in house; host or cells: E. coli BL21 (DE3)
The assay is described as follows: HTRF assay, GRASP55-JAM-B interaction. The assay is classed as biochemical, human. The procedure:
HTRF assays were performed in white 96Well Small VolumeHiBase Polystyrene Microplates (Greiner) with a total working volume of […], as described previously (Milhas et al., 2016). Briefly, compounds were firstly dispensed into the wells at 400 µM for the primary screen or with serial DMSO dilutions for IC50 measurement assays. Primary screening assays have been performed in monoplicate while IC50 measurements were performed in triplicates. All HTRF reagents were purchased from CisBio Bioassays and reconstituted according to the supplier protocols. The plates were spun for 3 min at 500 × g and then incubated at 4°C for 16 h. The HTRF signals were recorded on a POLAR star Omega plate reader (BMG Labtech) with an excitation filter at 337 nm and fluorescence wavelength measurement at 620 and 665 nm, an integration delay of 60 µs and an integration time of 400 µs. Results were analysed with a two‐wavelength signal ratio: [intensity (665 nm)/intensity (620 nm)] × 10^4. Percentage of inhibition was calculated using the following equation: % inhibition = [(compound signal)–(min signal)]/[(max signal)–(min signal)] × 100, where ‘max signal’ is the signal ratio with the compound vehicle alone (DMSO) and ‘min signal’ the signal ratio without protein B. For IC50 measurements, values were normalized and fitted with Prism (GraphPad software) using the following equation: Y = 100/(1+((X/ IC50)ˆHill slope)).
The search strategy for PDZ2 syntenin inhibitors was based on the PDZ targeted library developed from Enamine compound collection. The PDZ targeted library was developed to cover virtually all PDZ domains. Consequently, to create the syntenin PDZ2 focused library we used two independent paths: docking of the PDZ targeted library against structures of syntenin PDZ2 available in Protein Data Bank and a random selection from the PDZ targeted library. The docking has produced 21 virtual hits, which were added to 118 randomly selected compounds (10% of the pan PDZ library). The resultant set of 139 compounds, syntenin PDZ library was subjected to experimental validation. The primary screen was performed at 400µM using a previously validated Homogeneous Time Resolved Fluorescence (HTRF) assay (Milhas et al., 2016). HTRF is based on Fluorescence Resonance Energy Transfer (FRET) between two fluorescent reagents. In the present case, Anti‐GST‐Terbium antibody and streptavidin‐bound Dynamic2 were used as donor and acceptor respectively. Interactions between GST PDZ‐fusion proteins and biotinylated peptides containing PDZ binding motifs were challenged with the potential inhibitors. In parallel, control experiments were performed with a biotinylated‐GST to verify that compounds were not interfering with the FRET signal in a non‐specific manner. To identify inhibitors of syntenin PDZ interactions, we tested for the effect of the 139 compounds on syntenin‐SDC2 and syntenin‐Frizzled7 complexes (Figure 1a; Table S1). When the HTRF signal dropped below 0.9, inhibition was considered as effective. […] Noteworthy, these compounds had no effect on other PDZ complexes like GRASP55‐JAM‐B or GRASP55‐JAM‐C and Erbin‐Erbb2 or Erbin‐P0071 (Figure 1c).

The target in assay [1] is T2, syntenin‐SDC2 complex (GST-SyntFL / SDC2 peptide) (Homo sapiens, UniProt O00560).
T2 construct: residues 1–298 or syntenin full‐length (FL) for HTRF assays; made in house; host or cells: E. coli ER2566
T2 sequence (O00560 1-298): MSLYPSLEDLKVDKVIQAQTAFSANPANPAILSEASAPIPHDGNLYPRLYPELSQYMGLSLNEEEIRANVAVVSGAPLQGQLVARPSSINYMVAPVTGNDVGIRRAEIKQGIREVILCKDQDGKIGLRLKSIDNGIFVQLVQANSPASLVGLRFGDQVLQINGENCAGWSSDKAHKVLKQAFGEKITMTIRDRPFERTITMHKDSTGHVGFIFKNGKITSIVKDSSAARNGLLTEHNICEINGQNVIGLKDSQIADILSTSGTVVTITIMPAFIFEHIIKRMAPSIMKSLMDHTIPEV
The assay is described as follows: HTRF assay, syntenin-SDC2 interaction. Format: biochemical. The following applies: for IC50: HTRF dose-response, read-out: IC50 for syntenin‐SDC2 complexes; for inhibition at 400 µM: HTRF.

A further assay relates to MCF‐7 cells. Nature of the assay: Mammosphere formation assay, MCF-7. The assay is classed as cell-based. The settings on record: wild-type MCF-7, 50 & 100 µM. On the procedure:
MCF‐7 and MCF‐7 SyntKO cells were treated with increasing concentrations of compounds C58, SyntOFF (50‐100µM) or DMSO 0.2% as control. After 24 h, cells were trypsinized, re‐suspended in normal growth media and washed three times in PBS to remove serum. Cell concentration was determined using the LUNA-FL Automated Fluorescence Cell Counter (Logos Biosystem) and cells were then seeded at 1000 cells/ml in 6‐well Ultra low Adherence plates (Corning Inc., Corning, NY) in MEBM medium (Lonza) supplemented with 5 µg/ml insulin (Sigma‐Aldrich), 20 ng/ml recombinant epidermal growth factor (Sigma‐Aldrich), 1X of B27 supplement (Invitrogen, Carlsbad, CA, USA), 0.5 µg/ml hydrocortisone (Sigma‐Aldrich), 1X of β‐mercaptoethanol and 1% penicillin/streptomycin (Gibco). Fresh medium was added into the plates every 3–4 days. The number of spheres (diameter > 50 µm) was evaluated under microscope on days 7–10. Sphere formation was calculated as the number of spheres divided by the original number of cells seeded and normalized to control.

On to `CC(C)[C@H](NC(=O)CSc1ccc(Cl)cc1)C(=O)O` [Compound C58], for which the “GST-GRASP JAM-B (signal ratio)” value in the assay on GRASP55‐JAM‐B complex (400µM compound, Figure 1c) turned out to be 1.1. Besides, in assay [1], the ligand efficiency was determined as 0.24 kcal/mol/atom; the IC50 was 350 µM and 349 µM. Moreover, in assay [1] (400µM compound, Figure 1c), the “GST SyntFL Syndecan 2 (signal ratio)” value is 0.36. Besides, the “inhibition of syntenin PDZ interactions” value in assay [1] (HTRF primary screen, 400µM, syntenin-SDC2 and syntenin-Frizzled7) is “inhibit”. The inhibition at 400 µM in assay [1] (syntenin-SDC2 and syntenin-Frizzled 7 complexes, read-out: extent of inhibition of Syntenin‐PDZ complexes) was determined as 60%. Moreover, the mammosphere formation entry in the assay on MCF‐7 cells is “decreases”.

As for `CC(C)[C@H](NC(=O)CCSc1ccc(Cl)cc1)C(=O)O` [SyntOFF, (S)‐2‐(3‐(4‐chlorophenylthio)propanamido)‐3‐methylbutanoic acid], the “effect on GRASP55‐JAM‐B complex” value in the assay with GRASP55‐JAM‐B complex (HTRF dose-response, Figure S2b) is “not affecting”. Moreover, in assay [1], the ligand efficiency is on record as 0.30 kcal/mol/atom and the IC50 came out at 37 µM. The “fold improvement of the affinity as compared to C58” value in assay [1] (HTRF IC50) is > 10 fold and 10 fold. For the same compound, the inhibition at 400 µM in assay [1] (read-out: inhibition of the syntenin‐SDC2 interaction) turned out to be 96%. Further, the mammosphere formation result in the assay on MCF‐7 cells is listed as “decreases”.
